From ChEMBL document CHEMBL3351369, “Phenylpropanoid acid esters from Korean propolis and their antioxidant activities” (Bioorg Med Chem Lett, 2014) come the findings set out here.

A short description of data set [1]: Ratio of compound IC50 to trolox IC50 for ABTS radical scavenging activity after 12 hrs by spectrophotometry.
The nature of data set [2]: Ratio of compound IC50 to trolox IC50 for DPPH radical scavenging activity after 30 mins by spectrophotometry.
Data set [3] in a line: Antioxidant activity assessed as hydroxyl radical scavenging activity at 50 uM after 30 mins by Fenton reaction-induced DNA single strand breakage method. Type of data set: physicochemical. The note with it: 0.5 h.
Data set [4] in a line: Antioxidant activity assessed as DPPH radical scavenging activity after 30 mins by spectrophotometry. Type of data set: physicochemical. Conditions: 0.5 h; call rule not given here.
The nature of data set [5]: Antioxidant activity assessed as ABTS radical scavenging activity after 12 hrs by spectrophotometry. Format: physicochemical.
Data set [6] in a line: Antioxidant activity assessed as DPPH radical scavenging activity up to 1 mM after 30 mins by spectrophotometry. Format: physicochemical. The note with it: 0.5 h.
Data set [7] in a line: Antioxidant activity assessed as ABTS radical scavenging activity up to 1 mM after 12 hrs by spectrophotometry. Type of data set: physicochemical.

As for `Cc1c(C)c2c(c(C)c1O)CCC(C)(C(=O)O)O2` (stereo not given), the Ratio IC50 in data set [1] and in data set [2] was 1 throughout.

`COc1cc(/C=C/C(=O)OCc2ccccc2)ccc1O` [BENZYL FERULATE]: the results for the Activity entry in data set [3], in data set [4] and in data set [5] were “Not Active”, “Dose-dependent effect” and “Dose-dependent effect”, respectively. For the same compound, the results for the Ratio IC50 in data set [1] and in data set [2] were 24.8 and 92.1, respectively.

`COc1ccc(/C=C/C(=O)OC/C=C/c2ccccc2)cc1OC`: the Ratio IC50 in data set [1] and in data set [2] was greater than 500 in each case.

Regarding `COc1cc(/C=C/C(=O)OCC=C(C)C)ccc1O`, the Activity entry in data set [3] is “Not Active”; in data set [4] it was “Dose-dependent effect”; in data set [5], “Dose-dependent effect”. The Ratio IC50 in data set [1] came out at 23.1; in data set [2] it was 105.

`O=C(/C=C/c1ccccc1)OC/C=C/c1ccccc1`: the Activity entry in data set [6] and in data set [7] was “Not Active” each time. The Ratio IC50 in data set [1] and in data set [2] was greater than 500 each time.

Take `O=C(/C=C/c1ccc(O)c(O)c1)OCc1ccccc1` [BENZYL CAFFEATE]: the Activity entry in data set [3] is reported as “Active”; in data set [4], “Dose-dependent effect”; in data set [5], “Dose-dependent effect”. The figures for the Ratio IC50 in data set [1] and in data set [2] were 3.42 and 3.86, respectively.

On to `O=C(/C=C/c1ccc(O)c(O)c1)OCCc1ccccc1` [CAFFEIC ACID PHENETHYL ESTER], for which the Activity entry is “Active” in data set [3], “Dose-dependent effect” in data set [4] and “Dose-dependent effect” in data set [5]. Also, the Ratio IC50 in data set [1] worked out at 6.3; in data set [2] it was 0.46.

As to `O=C(/C=C/c1ccc(O)cc1)OCc1ccccc1`, the Activity result in data set [6] and in data set [7] was “Not Active” in each case. Moreover, the Ratio IC50 in data set [1] and in data set [2] was greater than 500 throughout.

With `O=C(/C=C/c1ccccc1)OCCc1ccccc1` [PHENETHYL CINNAMATE], the Activity entry in data set [6] and in data set [7] was “Not Active” each time. Moreover, the Ratio IC50 in data set [1] and in data set [2] was greater than 500 throughout.

Take `CCOC(=O)/C=C/c1ccc(O)c(O)c1` [ETHYL CAFFEATE]: the Activity result in data set [3] is on record as “Active”; in data set [4] it was “Dose-dependent effect”; in data set [5] it was “Dose-dependent effect”. In addition, the Ratio IC50 in data set [1] is 10.6; in data set [2], 6.3.

On to `O=C(/C=C/c1ccc(O)cc1)OC/C=C/c1ccccc1`, for which the Activity entry in data set [6] and in data set [7] was “Not Active” in each case. For the same compound, the Ratio IC50 in data set [1] and in data set [2] was greater than 500 in each case.
